The text below walks through data of PubChem BioAssay AID1259407 (Chemical Carcinogenesis Research Information System (CCRIS), 2018).

This series has as its system CCRIS mutagenicity, Ames/micronucleus/aberration tests. Kind of series: CCRIS mutagenicity studies.
[1] abbreviates: Test System: AMES SALMONELLA TYPHIMURIUM, Strain/Indicator: TA98, Metabolic Activation: NONE, Method: STANDARD PLATE.
The mark [2] stands for this setting: Test System: AMES SALMONELLA TYPHIMURIUM, Strain/Indicator: TA100, Metabolic Activation: NONE, Method: PREINCUBATION
Setting [3] is: Test System: AMES SALMONELLA TYPHIMURIUM, Strain/Indicator: TA100, Metabolic Activation: NONE, Method: STANDARD PLATE.
The mark [4] stands for this setting: Test System: AMES SALMONELLA TYPHIMURIUM, Strain/Indicator: TA102, Metabolic Activation: NONE, Method: PREINCUBATION

The source made the active and inactive calls. The rule behind the calls is not given here.

In the case of `CC1=CC(=O)c2c(O)cccc2C1=O`, the mutagenic call runs as follows: (Test System: AMES SALMONELLA TYPHIMURIUM, Strain/Indicator: TA97, Metabolic Activation: NONE, Method: PREINCUBATION) “active; positive”; (Test System: AMES SALMONELLA TYPHIMURIUM, Strain/Indicator: TA97, Metabolic Activation: RAT, LIVER, S-9, PHENOBARBITAL AND 5,6-BENZOFLAVONE, Method: PREINCUBATION) “active; positive”; (Test System: AMES SALMONELLA TYPHIMURIUM, Strain/Indicator: TA98, Metabolic Activation: HAMSTER LIVER S-9, AROCLOR 1254, Method: STANDARD PLATE) “inactive; negative”; (Test System: AMES SALMONELLA TYPHIMURIUM, Strain/Indicator: TA98, Metabolic Activation: NONE, Method: PREINCUBATION) “inactive; negative”; under setting [1], “inactive; negative”; (Test System: AMES SALMONELLA TYPHIMURIUM, Strain/Indicator: TA98, Metabolic Activation: RAT LIVER S-9, AROCLOR 1254, Method: STANDARD PLATE) “inactive; negative”. In addition, the mutagenic call runs as follows: (Test System: AMES SALMONELLA TYPHIMURIUM, Strain/Indicator: TA98, Metabolic Activation: RAT, LIVER, S-9, PHENOBARBITAL AND 5,6-BENZOFLAVONE, Method: PREINCUBATION) “inactive; negative”; (Test System: AMES SALMONELLA TYPHIMURIUM, Strain/Indicator: TA100, Metabolic Activation: HAMSTER LIVER S-9, AROCLOR 1254, Method: STANDARD PLATE) “inactive; negative”; under setting [2], “inactive; negative”; under setting [3], “inactive; negative”; (Test System: AMES SALMONELLA TYPHIMURIUM, Strain/Indicator: TA100, Metabolic Activation: RAT LIVER S-9, AROCLOR 1254, Method: STANDARD PLATE) “inactive; negative”; (Test System: AMES SALMONELLA TYPHIMURIUM, Strain/Indicator: TA100, Metabolic Activation: RAT, LIVER, S-9, PHENOBARBITAL AND 5,6-BENZOFLAVONE, Method: PREINCUBATION) “active; positive”. For the same compound, the mutagenic call by setting is: under setting [4], “inactive; negative”; (Test System: AMES SALMONELLA TYPHIMURIUM, Strain/Indicator: TA102, Metabolic Activation: NONE, Method: STANDARD PLATE) “inactive; negative”; (Test System: AMES SALMONELLA TYPHIMURIUM, Strain/Indicator: TA102, Metabolic Activation: RAT, LIVER, S-9, PHENOBARBITAL AND 5,6-BENZOFLAVONE, Method: PREINCUBATION) “inactive; negative”; (Test System: AMES SALMONELLA TYPHIMURIUM, Strain/Indicator: TA104, Metabolic Activation: NONE, Method: PREINCUBATION) “active; positive”; (Test System: AMES SALMONELLA TYPHIMURIUM, Strain/Indicator: TA104, Metabolic Activation: RAT, LIVER, S-9, PHENOBARBITAL AND 5,6-BENZOFLAVONE, Method: PREINCUBATION) “active; positive”; (Test System: AMES SALMONELLA TYPHIMURIUM, Strain/Indicator: TA1535, Metabolic Activation: HAMSTER LIVER S-9, AROCLOR 1254, Method: STANDARD PLATE) “inactive; negative”. Besides, the mutagenic call is “inactive; negative” (Test System: AMES SALMONELLA TYPHIMURIUM, Strain/Indicator: TA1535, Metabolic Activation: NONE, Method: PREINCUBATION); “inactive; negative” (Test System: AMES SALMONELLA TYPHIMURIUM, Strain/Indicator: TA1535, Metabolic Activation: NONE, Method: STANDARD PLATE); “inactive; negative” (Test System: AMES SALMONELLA TYPHIMURIUM, Strain/Indicator: TA1535, Metabolic Activation: RAT LIVER S-9, AROCLOR 1254, Method: STANDARD PLATE); “inactive; negative” (Test System: AMES SALMONELLA TYPHIMURIUM, Strain/Indicator: TA1535, Metabolic Activation: RAT, LIVER, S-9, PHENOBARBITAL AND 5,6-BENZOFLAVONE, Method: PREINCUBATION); “inactive; negative” (Test System: AMES SALMONELLA TYPHIMURIUM, Strain/Indicator: TA1537, Metabolic Activation: HAMSTER LIVER S-9, AROCLOR 1254, Method: STANDARD PLATE); “inactive; negative” (Test System: AMES SALMONELLA TYPHIMURIUM, Strain/Indicator: TA1537, Metabolic Activation: NONE, Method: PREINCUBATION). Besides, the mutagenic call (Test System: AMES SALMONELLA TYPHIMURIUM, Strain/Indicator: TA1537, Metabolic Activation: NONE, Method: STANDARD PLATE) was “inactive; negative”; the mutagenic call (Test System: AMES SALMONELLA TYPHIMURIUM, Strain/Indicator: TA1537, Metabolic Activation: RAT LIVER S-9, AROCLOR 1254, Method: STANDARD PLATE) was “inactive; negative”; the mutagenic call (Test System: AMES SALMONELLA TYPHIMURIUM, Strain/Indicator: TA1537, Metabolic Activation: RAT, LIVER, S-9, PHENOBARBITAL AND 5,6-BENZOFLAVONE, Method: PREINCUBATION) is “active; positive”; the mutagenic call (Test System: AMES SALMONELLA TYPHIMURIUM, Strain/Indicator: TA1538, Metabolic Activation: NONE, Method: PREINCUBATION) was “inactive; negative”; the mutagenic call (Test System: AMES SALMONELLA TYPHIMURIUM, Strain/Indicator: TA1538, Metabolic Activation: RAT, LIVER, S-9, PHENOBARBITAL AND 5,6-BENZOFLAVONE, Method: PREINCUBATION) was “inactive; negative”; the mutagenic call (Test System: AMES SALMONELLA TYPHIMURIUM, Strain/Indicator: TA2637, Metabolic Activation: NONE, Method: PREINCUBATION) is “active; positive”. In addition, the mutagenic call is, setting by setting: (Test System: AMES SALMONELLA TYPHIMURIUM, Strain/Indicator: TA2637, Metabolic Activation: RAT, LIVER, S-9, PHENOBARBITAL AND 5,6-BENZOFLAVONE, Method: PREINCUBATION) “active; positive”; (Test System: AMES SALMONELLA TYPHIMURIUM, Strain/Indicator: TA2638, Metabolic Activation: NONE, Method: STANDARD PLATE) “inactive; negative”; (Test System: Ames Salmonella typhimurium, Strain/Indicator: TA102, Metabolic Activation: None, Method: Preincubation) “inactive; negative”; (Test System: Ames Salmonella typhimurium, Strain/Indicator: TA102, Metabolic Activation: Rat, Liver, S-9, Aroclor 1254 in 0.154 M KCl, Method: Preincubation) “inactive; negative”; (Test System: E. COLI, Strain/Indicator: WP2 (PKM101), Metabolic Activation: NONE, Method: STANDARD PLATE) “inactive; negative”; (Test System: E. COLI, Strain/Indicator: WP2 UVRA (PKM101), Metabolic Activation: NONE, Method: STANDARD PLATE) “inactive; negative”. The mutagenic call runs as follows: (Test System: MOUSE LYMPHOMA, Strain/Indicator: L5178Y (TK+/TK-), Metabolic Activation: NONE, Method: SUSPENSION/PLATE) “inactive; positive. reevaluation of results: negative”; (Test System: MOUSE LYMPHOMA, Strain/Indicator: L5178Y (TK+/TK-), Metabolic Activation: RAT, LIVER, S-9, AROCLOR 1254, Method: SUSPENSION/PLATE) “active; positive. reevaluation of results: equivocal”.
`COc1c2cc3c(cc2nc2occc12)OCO3`: the mutagenic call (Test System: AMES SALMONELLA TYPHIMURIUM, Strain/Indicator: TA98, Metabolic Activation: RAT, LIVER, S-9, PHENOBARBITAL, Method: STANDARD PLATE) was “active; positive” and the mutagenic call (Test System: AMES SALMONELLA TYPHIMURIUM, Strain/Indicator: TA100, Metabolic Activation: RAT, LIVER, S-9, PHENOBARBITAL, Method: STANDARD PLATE) is “active; positive”.
For `O=[N+]([O-])c1ccc2c3ccccc3c3c([N+](=O)[O-])ccc4ccc1c2c43`, the mutagenic call runs as follows: under setting [1], “active; positive”; (Test System: AMES SALMONELLA TYPHIMURIUM, Strain/Indicator: TA98, Metabolic Activation: RAT, LIVER, S-9, AROCLOR 1254, Method: STANDARD PLATE) “active; positive”.
`O=C1CCCc2ccc3c([N+](=O)[O-])c4ccccc4cc3c21`: the mutagenic call by setting is: (Test System: AMES SALMONELLA TYPHIMURIUM, Strain/Indicator: TA98, Metabolic Activation: NONE) “inactive; negative”; (Test System: AMES SALMONELLA TYPHIMURIUM, Strain/Indicator: TA98, Metabolic Activation: S-9) “inactive; negative”; (Test System: AMES SALMONELLA TYPHIMURIUM, Strain/Indicator: TA100, Metabolic Activation: NONE) “inactive; negative”; (Test System: AMES SALMONELLA TYPHIMURIUM, Strain/Indicator: TA100, Metabolic Activation: S-9) “inactive; negative”.
`Nc1nc2c([nH]c(=O)n2[C@H]2C[C@H](O)[C@@H](CO)O2)c(=O)[nH]1`: the mutagenic call under setting [2] is “inactive; negative”.
For the compound `N[C@@H](CCC(=O)N[C@@H](CSN=O)C(=O)NCC(=O)O)C(=O)O`, the mutagenic call is, setting by setting: under setting [2], “active; positive”; (Test System: AMES SALMONELLA TYPHIMURIUM, Strain/Indicator: TA100, Metabolic Activation: RAT, LIVER, S-9, AROCLOR, Method: PREINCUBATION) “active; positive”; under setting [4], “active; positive”.
As to `O=C(O)c1oc([N+](=O)[O-])c(-c2ccccc2)c1-c1ccccc1`, the mutagenic call was “inactive; negative” under setting [1] and “active; positive” under setting [3].
